Literature values in patent publication US20250275948A1, “(N-[4-(2,3-DIHYDRO-1H-INDEN-5-YL)-1,3-THIAZOL-2-YL]-2-[4-METHYL-4-(NAPHTHALEN-2-YL)-2,5-DIOXOIMIDAZOLIDIN-1-YL]ACETAMIDE AS STABILIZER OF CLOCK:BMAL1 INTERACTION FOR THE TREATMENT OF CIRCADIAN RHYTHM DISEASES AND DISORDERS” (KOC UNIVERSITESI, priority 2022, published 2025).

Legend:
Settings in all cases: cited from earlier work
REV-ERB = tested on: REV-ERB
CRYs = tested on: CRYs
gluconeogenesis = tested on: gluconeogenesis

| Compound | effect on REV-ERB repressor function (REV-ERB) | effect on stability of CRYs (CRYs) | effect on gluconeogenesis (gluconeogenesis) |
| --- | --- | --- | --- |
| CC(C)(C)OC(=O)CN(Cc1ccc(Cl)cc1)Cc1ccc([N+](=O)[O-])s1 [GSK4112] | enhance REV-ERB's repressor function toward Bmal1 transcription |  |  |
| CS(=O)(=O)N(Cc1ccco1)CC(O)Cn1c2ccccc2c2ccccc21 (stereo not drawn) [KL001] |  | increases stability of the CRYs | suppresses the gluconeogenesis |
